Source: patent US11466013B2 (Betta Pharmaceuticals Co., LTD, priority 2018, dated 2022)

Tests used:
ERK1 = ERK1 (Homo sapiens, UniProt P27361); assay: Kinase assay (Caliper, FAM-labeled peptide), ERK1; type: biochemical
Description: (§1) The compound was diluted to the desired concentration with DMSO, transferred 100 μL to a 96-well plate, and performed a gradient dilution 10 μL of compound from each well was taken and mixed with 90 μL of kinase buffer, and then transferred 5 μL from each well to a 384-well plate. Kinase and FAM-labeled peptide and ATP were added to 1× kinase alkaline buffer to obtain 2.5× enzyme solution and 2.5× peptide solution, 10 μL of 2.5× enzyme solution was added to the 384-well assay plate. After incubating for 10 minutes at room temperature, 10 μL of 2.5× peptide solution was added to the 384-well plate. After reacting for a specific time at […], 25 μL of termination buffer was added to stop reaction. After reading the collected data on Caliper, the data was converted to inhibition percentage. Inhibition percentage=(maximum value−conversion value)/(maximum value−minimum value)*100.
(§2) The “maximum” is the DMSO control, the “minimum” indicates the low control.
(§3) Graphpad Prism software was used to perform curve fitting and obtain IC50 value.

ERK2 = ERK2 (Homo sapiens, UniProt P28482); assay: Kinase assay (Caliper, FAM-labeled peptide), ERK2; type: biochemical
Description: as §1, §2, §3

Sequence of ERK2 (P28482 whole entry): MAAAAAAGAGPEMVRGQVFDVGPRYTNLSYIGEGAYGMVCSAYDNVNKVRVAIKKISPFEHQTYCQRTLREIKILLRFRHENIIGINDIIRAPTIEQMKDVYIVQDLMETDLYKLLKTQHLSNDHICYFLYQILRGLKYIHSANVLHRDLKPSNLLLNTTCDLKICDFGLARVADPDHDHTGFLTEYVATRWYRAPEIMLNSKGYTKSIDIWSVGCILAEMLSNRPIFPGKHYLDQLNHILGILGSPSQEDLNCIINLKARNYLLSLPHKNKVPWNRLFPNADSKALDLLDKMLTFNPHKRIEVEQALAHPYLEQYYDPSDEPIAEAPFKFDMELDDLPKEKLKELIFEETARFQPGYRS
Sequence of ERK1 (P27361 whole entry): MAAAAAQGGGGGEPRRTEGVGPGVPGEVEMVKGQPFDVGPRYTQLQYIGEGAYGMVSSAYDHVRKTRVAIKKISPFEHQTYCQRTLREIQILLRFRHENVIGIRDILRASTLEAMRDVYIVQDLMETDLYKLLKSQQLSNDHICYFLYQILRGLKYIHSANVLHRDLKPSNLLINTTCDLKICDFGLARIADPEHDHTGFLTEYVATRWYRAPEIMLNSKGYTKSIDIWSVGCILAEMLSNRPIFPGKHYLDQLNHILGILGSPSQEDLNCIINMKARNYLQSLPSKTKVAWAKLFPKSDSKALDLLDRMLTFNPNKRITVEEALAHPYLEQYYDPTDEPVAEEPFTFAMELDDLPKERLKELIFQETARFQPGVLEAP

| SMILES | IC50 (ERK1) [nM] | IC50 (ERK2) [nM] |
| --- | --- | --- |
| COC[C@H]1Cn2cc(-c3ccnc(NC4CCOCC4)c3)cc2C(=O)N1Cc1cc(F)ccc1CO [Example 67, (R)-2-(5-fluoro-2-(hydroxymethyl)benzyl)-3-(methoxymethyl)-7-(2-((tetrahydro-2h-pyran-4-yl)amino)pyridine-4-yl)-3,4-dihydropyrrolo [1,2-a]pyrazine-1(2H)-one] | 1.6 | 1.2 |
| COC[C@H]1Cn2cc(-c3cc(NC4CCC4)ncc3Cl)cc2C(=O)N1Cc1cc(F)ccc1CO [Example 70, (R)-7-(5-chloro-2-(cyclobutylamino)pyridin-4-yl)-2-(5-fluoro-2-(hydroxymethyl)benzyl)-3-(methoxymethyl)-3,4-dihydropyrrolo[1,2-a] pyrazine-1(2H)-one] | 1.8 | 2 |
| COCC1Cn2cc(-c3cc(NC4CCN(C(C)C)CC4)ncc3Cl)cc2C(=O)N1Cc1cc(F)ccc1CO (stereo not drawn) [Example 73, 7-(5-chloro-2-((1-isopropylpiperidin-4-yl)amino)pyridine-4-yl)-2-(5-fluoro-2-(hydroxymethyl)benzyl)-3-(methoxymethyl)-3,4-dihydropyrrolo[1,2-a] pyrazine-1(2H)-one] | 3.1 | 0.9 |
| COC[C@H]1Cn2cc(-c3cc(NC4CC4)ncc3Cl)cc2C(=O)N1Cc1cc(F)ccc1CO [Example 74, (R)-7-(5-chloro-2-(cyclopropylamino)pyridin-4-yl)-2-(5-fluoro-2-(hydroxymethyl)-benzyl)-3-(methoxymethyl)-3,4-dihydropyrrolo[1,2-a] pyrazine-1(2H)-one] | 1.2 | 1.3 |
| COC[C@H]1Cn2cc(-c3cc(NC4CCCC4)ncc3Cl)cc2C(=O)N1Cc1cc(F)ccc1CO [Example 77, (R)-7-(5-chloro-2-(cyclopentylamino)pyridin-4-yl)-2-(5-fluoro-2-(hydroxymethyl)benzyl)-3-(methoxymethyl)-3,4-dihydropyrrolo[1,2-a] pyrazine-1(2H)-one] | 1.1 | 1.5 |
| COC[C@H]1Cn2cc(-c3cc(NC4CCOC(C)(C)C4)ncc3Cl)cc2C(=O)N1Cc1cc(F)ccc1CO (stereo partly drawn) [Example 78, (3R)-7-(5-chloro-2-((2,2-dimethyltetrahydro-2h-pyran-4-yl)amino)pyridine-4-yl)-2-(5-fluoro-2-(hydroxymethyl)benzyl)-3-(methoxymethyl)-3,4-dihydropyrrolo[1,2-a] pyrazine-1(2H)-one] | 0.87 | 1.5 |
| COC[C@H]1Cn2cc(-c3cc(NC4COC(C)(C)C4)ncc3Cl)cc2C(=O)N1Cc1cc(F)ccc1CO (stereo partly drawn) [Example 79, (3R)-7-(5-chloro-2-((5,5-dimethyltetrahydrofuran-3-yl)amino)pyridine-4-yl)-2-(5-fluoro-2-(hydroxymethyl)benzyl)-3-(methoxymethyl)-3,4-dihydropyrrolo[1,2-a] pyrazine-1(2H)-one] | 0.36 | 0.39 |
| COC[C@H]1Cn2cc(-c3cc(Nc4cc(C)on4)ncc3Cl)cc2C(=O)N1Cc1cc(F)ccc1CO [Example 80, (R)-7-(5-chloro-2-((5-Methylisoxazole-3-yl)amino)pyridine-4-yl)-2-(5-fluoro-2-(hydroxymethyl)benzyl)-3-(methoxymethyl)-3,4-dihydropyrrolo[1,2-a] pyrazine-1(2H)-one] | 0.73 | 0.68 |
| COC[C@H]1Cn2cc(-c3cc(Nc4c(C)noc4C)ncc3Cl)cc2C(=O)N1Cc1cc(F)ccc1CO [Example 81, (R)-7-(5-chloro-2-((3,5-dimethyl-isoxazole-4-yl)amino)pyridine-4-yl)-2-(5-fluoro-2-(hydroxymethyl)benzyl)-3-(methoxymethyl)-3,4-dihydropyrrolo[1,2-a] pyrazine-1(2H)-one] | 1.1 | 1.5 |
| COCC1Cn2cc(-c3cc(NC4CCN(C(C)=O)CC4)ncc3Cl)cc2C(=O)N1Cc1cc(F)ccc1CO (stereo not drawn) [Example 110, 7-(2-((1-acetylpiperidin-4-yl)amino)-5-chloropyridine-4-yl)-2-(5-fluoro-2-(hydroxymethyl)benzyl)-3-(methoxymethyl)-3,4-dihydropyrrolo[1,2-a] pyrazine-1(2H)-one] | 0.6 | 0.7 |
| COC[C@H]1Cn2cc(-c3cc(NC4CCC(OC)CC4)ncc3Cl)cc2C(=O)N1Cc1cc(F)ccc1CO (stereo partly drawn) [Example 111, (R)-7-(5-chloro-2-((4-methoxycyclohexyl)amino)pyridine-4-yl)-2-(5-fluoro-2-(hydroxymethyl)benzyl)-3-(methoxymethyl)-3,4-dihydropyrrolo[1,2-a] pyrazine-1(2H)-one] | 0.9 | 0.9 |
| COC[C@H]1Cn2cc(-c3cc(NC(C)=O)ncc3Cl)cc2C(=O)N1Cc1cc(F)ccc1CO [Example 112, (R)-N-(5-chloro-4-(2-(5-fluoro-2-(hydroxymethyl)benzyl)-3-(methoxymethyl)-1-oxo-1,2,3,4-tetrahydropyrrolo [1,2-a]pyrazin-7-yl)pyridine-2-yl) acetamide] | 0.4 | 1 |
| COC[C@H]1Cn2cc(-c3cc(Nc4ccn(CC(F)F)n4)ncc3Cl)cc2C(=O)N1Cc1cc(F)ccc1CO [Example 114, (R)-7-(5-chloro-2-((1-(2,2-difluoroethyl)-1h-pyrazole-3-yl)amino)pyridine-4-yl)-2-(5-fluoro-2-(hydroxymethyl)benzyl)-3-(methoxymethyl)-3,4-dihydropyrrolo[1,2-a] pyrazine-1(2H)-one] | 1.3 | 1.3 |
| COC[C@H]1Cn2cc(-c3cc(NC(=O)c4csc(C)n4)ncc3Cl)cc2C(=O)N1Cc1cc(F)ccc1CO [Example 117, (R)-N-(5-chloro-4-(2-(5-fluoro-2-(hydroxymethyl)benzyl)-3-(methoxymethyl)-1-oxo-1,2,3,4-tetrahydropyrrolo [1,2-a]pyrazin-7-yl)pyridine-2-yl)-2-methylthiazol-4-formamide] | 1.2 | 1 |
| Cc1cnc(NC(C)CO)nc1-c1cc2n(c1)CCN(Cc1cc(F)ccc1CO)C2=O (stereo not drawn) [Example 121, 2-(5-fluoro-2-(hydroxymethyl)benzyl)-7-(2-((1-hydroxypropyl-2-yl)amino)-5-methylpyrimidin-4-yl)-3,4-dihydropyrrolo[1,2-a] pyrazine-1(2H)-one] | 0.2 | 0.2 |
| Cc1cnc(NC2COC2)nc1-c1c[nH]c(C(=O)NCc2cc(F)ccc2CO)c1 [Example 122, N-(5-fluoro-2-(hydroxymethyl)benzyl)-4-(5-methyl-2-(oxacyclobutane-3-ylamino)pyrimidin-4-yl)-1h-pyrrole-2-formamide] | 0.65 | 0.71 |
| Cc1cnc(NC(C)C)nc1-c1cc2n(c1)CCN(Cc1cc(F)ccc1CO)C2=O [Example 123, 2-(5-fluoro-2-(hydroxymethyl)benzyl)-7-(2-(isopropylamino)-5-methylpyrimidin-4-yl)-3,4-dihydropyrrolo[1,2-a] pyrazine-1(2H)-one] | 0.53 | 0.44 |
| O=C1c2cc(-c3cc(NCC(F)(F)F)ncc3Cl)cn2CCN1Cc1cc(F)ccc1CO [Example 124, 7-(5-chloro-2-((2,2,2-trifluoroethyl)amino)pyridine-4-yl)-2-(5-fluoro-2-(hydroxymethyl)benzyl)-3,4-dihydropyrrolo[1,2-a] pyrazine-1(2H)-one] | 0.79 | 0.98 |
| COC[C@H]1Cn2cc(-c3ccnc(NC(C)C)n3)cc2C(=O)N1Cc1cc(F)ccc1CO [Example 127, (R)-2-(5-fluoro-2-(hydroxymethyl)benzyl)-7-(2-(isopropylamino)pyrimidin-4-yl)-3-(methoxymethyl)-3.4-dihydropyrrolo[1,2-a] pyrazine-1(2H)-one] | 1.6 | 0.35 |
| O=C1c2cc(-c3cc(NC4CC(F)(F)C4)ncc3Cl)cn2CCN1Cc1cc(F)ccc1CO [Example 128, 7-(5-chloro-2-((3,3-difluorocyclobutyl)amino)pyridine-4-yl)-2-(5-fluoro-2 (hydroxymethyl)benzyl)-3,4-dihydropyrrolo[1,2-a] pyrazine-1(2H)-one] | 0.65 | 0.89 |
| CCNc1ncc(Cl)c(-c2cc3n(c2)C[C@H](COC)N(Cc2cc(F)ccc2CO)C3=O)n1 [Example 131, (R)-7-(5-chloro-2-(ethylamino)pyrimidin-4-yl)-2-(5-fluoro-2-(hydroxymethyl)benzyl)-3-(methoxymethyl)-3,4-dihydropyrrolo[1,2-a] pyrazine-1(2H)-one] | 0.83 | 1.4 |
| CCc1ccccc1Nc1ncc(C)c(-c2cc3n(c2)CCN(Cc2cc(F)ccc2CO)C3=O)n1 [Example 132, 7-(2-((2-Ethylphenyl)amino)-5-methylpyrimidin-4-yl)-2-(5-fluoro-2-(hydroxymethyl)benzyl)-3,4-dihydropyrrolo[1,2-a] pyrazine-1(2H)-one] | 0.8 | 0.9 |
| Cc1cnc(Nc2cccc3c2OCO3)nc1-c1cc2n(c1)CCN(Cc1cc(F)ccc1CO)C2=O [Example 133, 7-(2-(benzo[D][1,3]dioxocyclopentene-4-ylamino)-5-methylpyrimidin-4-yl)-2-(5-fluoro-2-(hydroxymethyl)benzyl)-3,4-dihydropyrrolo[1,2-a] pyrazine-1(2H)-one] | 0.7 | 0.7 |
| Cc1cnc(Nc2ccc3c(cnn3C)c2)nc1-c1cc2n(c1)CCN(Cc1cc(F)ccc1CO)C2=O [Example 134, 2-(5-fluoro-2-(hydroxymethyl)benzyl)-7-(5-methyl-2-((1-methyl-1h-indazole-5-yl)amino)pyrimidin-4-yl)-3,4-dihydropyrrolo[1,2-a] pyrazine-1(2H)-one] | 0.5 | 0.5 |
